Measured values: article PMC3176812, “Co-Crystal Structures of Inhibitors with MRCKβ, a Key Regulator of Tumor Cell Invasion” (PLoS ONE, 2011)

Key:
MRCKβ = molecular target: T1, MRCKβ (Homo sapiens, UniProt Q9Y5S2); test: IMAP fluorescence polarization in vitro kinase assay, MRCKβ; type: biochemical; settings: for Inhibition at 3 µM (%) / Inhibition at 30 µM (%): MRCKβ in vitro kinase assay, ATP at enzyme Km (0.7 µM); for Inhibition at 3 µM (%): 3 µM inhibitor; for Inhibition at 30 µM (%): 30 µM inhibitor; for IC50: 10 point dose-response, 0.002–40 µM, 0.7 µM ATP; for inhibition at 3 µM: read-out: Inhibition at 3 µM (%); for inhibition at 30 µM: read-out: Inhibition at 30 µM (%)
T1 construct: purchased Millipore

[1] = tested on: MDA MB 231 breast cancer cells; test: 3-dimensional inverse matrigel invasion assay; type: cell-based; settings: 5 days
From the text: The contribution of MRCK to tumor cell invasion was examined by knocking down both MRCKα and MRCKβ in MB 231 breast cancer cells and determining the effects in a 3-dimensional inverse matrigel invasion assay. The combined MRCKα plus MRCKβ knockdown could be achieved either with two siRNA duplexes targeting each mRNA transcript (MRCKα+β) or with a single siRNA duplex (MRCKα/β) that targets both (Figure 1A). Following plating on the underside of Transwell inserts containing a thick layer of matrigel and allowing 5 days for invasion through the porous filter and into the matrigel, the extent of MDA MB 231 cell invasion was determined by fixing and staining cells with propidium iodide, followed by confocal microscopic optical sectioning at 10 µm intervals (Figure 1B).
Cell invasion assays were as previously described. Complete Matrigel was thawed on ice, diluted 1∶1 with PBS and then 100 µl of diluted matrigel pipetted into Transwell inserts in a 24 well tissue culture plate and left to incubate for 30 minutes at 37°C to set. During this time cell suspensions of 3×10^5 cells per ml from each condition were prepared in their normal growth medium. When the Matrigel had set, the Transwell inserts were inverted and 100 µl of cell suspension pipetted onto the filter. […] ImageJ software was used for quantification. […]

MRCK = tested on: MRCK; parameters: method as in earlier work; settings: >140 times higher ATP concentration; ref 27 (Amano et al.); cited from earlier work
MRCKα = molecular target: T2, MRCKα (Homo sapiens, UniProt Q5VT25); test: IMAP fluorescence polarization in vitro kinase assay, MRCKα; type: biochemical; settings: 10 point dose-response, 0.002–40 µM, 0.7 µM ATP
T2 construct: purchased Millipore
Description: Activity assays for MRCKα and β were performed using an IMAP fluorescence polarization assay kit (Molecular Devices Inc.). […] Dose response inhibition analyses were performed over a drug concentration range from 0.002–40 µM, and single point inhibition was assessed at 3 or 30 µM drug.

T1 sequence (Q9Y5S2 whole entry): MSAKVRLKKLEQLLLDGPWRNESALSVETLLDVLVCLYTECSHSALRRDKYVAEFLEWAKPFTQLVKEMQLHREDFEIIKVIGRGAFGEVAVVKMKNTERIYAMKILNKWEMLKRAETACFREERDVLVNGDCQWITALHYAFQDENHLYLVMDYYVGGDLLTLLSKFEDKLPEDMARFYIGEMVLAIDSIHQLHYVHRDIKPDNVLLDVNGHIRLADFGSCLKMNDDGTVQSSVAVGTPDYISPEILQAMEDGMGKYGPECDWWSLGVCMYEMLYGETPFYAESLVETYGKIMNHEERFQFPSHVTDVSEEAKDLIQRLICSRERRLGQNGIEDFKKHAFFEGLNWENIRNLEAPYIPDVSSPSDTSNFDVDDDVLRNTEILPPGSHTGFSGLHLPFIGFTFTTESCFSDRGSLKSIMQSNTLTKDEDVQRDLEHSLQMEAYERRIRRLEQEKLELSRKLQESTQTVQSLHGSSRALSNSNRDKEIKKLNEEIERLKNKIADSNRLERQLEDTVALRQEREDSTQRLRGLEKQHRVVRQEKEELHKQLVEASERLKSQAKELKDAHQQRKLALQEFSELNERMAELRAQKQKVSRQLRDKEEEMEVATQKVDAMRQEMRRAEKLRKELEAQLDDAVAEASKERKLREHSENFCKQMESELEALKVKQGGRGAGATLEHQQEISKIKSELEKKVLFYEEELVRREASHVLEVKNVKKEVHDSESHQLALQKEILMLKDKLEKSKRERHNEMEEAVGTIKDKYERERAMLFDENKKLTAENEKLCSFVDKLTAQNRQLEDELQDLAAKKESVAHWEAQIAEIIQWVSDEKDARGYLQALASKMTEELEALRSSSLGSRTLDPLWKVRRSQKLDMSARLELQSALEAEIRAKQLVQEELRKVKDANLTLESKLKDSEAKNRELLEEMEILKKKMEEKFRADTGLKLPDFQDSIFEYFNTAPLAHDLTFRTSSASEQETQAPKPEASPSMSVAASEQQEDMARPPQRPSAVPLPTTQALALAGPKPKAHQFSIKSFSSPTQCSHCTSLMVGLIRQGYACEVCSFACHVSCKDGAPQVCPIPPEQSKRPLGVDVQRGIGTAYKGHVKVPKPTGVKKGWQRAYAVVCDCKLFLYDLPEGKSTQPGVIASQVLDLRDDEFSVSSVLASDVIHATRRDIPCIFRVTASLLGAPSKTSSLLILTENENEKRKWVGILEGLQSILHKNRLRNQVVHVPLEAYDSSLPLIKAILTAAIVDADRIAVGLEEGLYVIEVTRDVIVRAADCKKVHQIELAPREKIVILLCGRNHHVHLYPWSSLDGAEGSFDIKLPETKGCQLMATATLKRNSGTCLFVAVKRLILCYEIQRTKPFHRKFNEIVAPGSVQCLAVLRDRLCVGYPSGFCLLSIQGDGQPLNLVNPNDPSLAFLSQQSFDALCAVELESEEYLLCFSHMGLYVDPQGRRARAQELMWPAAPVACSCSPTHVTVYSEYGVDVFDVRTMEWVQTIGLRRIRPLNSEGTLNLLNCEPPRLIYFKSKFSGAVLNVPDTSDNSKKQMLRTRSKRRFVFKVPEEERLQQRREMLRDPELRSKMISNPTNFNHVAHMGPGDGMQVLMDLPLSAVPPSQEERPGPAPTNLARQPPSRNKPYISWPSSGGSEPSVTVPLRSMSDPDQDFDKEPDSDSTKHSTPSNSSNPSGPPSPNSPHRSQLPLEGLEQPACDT
T2 sequence (Q5VT25 whole entry): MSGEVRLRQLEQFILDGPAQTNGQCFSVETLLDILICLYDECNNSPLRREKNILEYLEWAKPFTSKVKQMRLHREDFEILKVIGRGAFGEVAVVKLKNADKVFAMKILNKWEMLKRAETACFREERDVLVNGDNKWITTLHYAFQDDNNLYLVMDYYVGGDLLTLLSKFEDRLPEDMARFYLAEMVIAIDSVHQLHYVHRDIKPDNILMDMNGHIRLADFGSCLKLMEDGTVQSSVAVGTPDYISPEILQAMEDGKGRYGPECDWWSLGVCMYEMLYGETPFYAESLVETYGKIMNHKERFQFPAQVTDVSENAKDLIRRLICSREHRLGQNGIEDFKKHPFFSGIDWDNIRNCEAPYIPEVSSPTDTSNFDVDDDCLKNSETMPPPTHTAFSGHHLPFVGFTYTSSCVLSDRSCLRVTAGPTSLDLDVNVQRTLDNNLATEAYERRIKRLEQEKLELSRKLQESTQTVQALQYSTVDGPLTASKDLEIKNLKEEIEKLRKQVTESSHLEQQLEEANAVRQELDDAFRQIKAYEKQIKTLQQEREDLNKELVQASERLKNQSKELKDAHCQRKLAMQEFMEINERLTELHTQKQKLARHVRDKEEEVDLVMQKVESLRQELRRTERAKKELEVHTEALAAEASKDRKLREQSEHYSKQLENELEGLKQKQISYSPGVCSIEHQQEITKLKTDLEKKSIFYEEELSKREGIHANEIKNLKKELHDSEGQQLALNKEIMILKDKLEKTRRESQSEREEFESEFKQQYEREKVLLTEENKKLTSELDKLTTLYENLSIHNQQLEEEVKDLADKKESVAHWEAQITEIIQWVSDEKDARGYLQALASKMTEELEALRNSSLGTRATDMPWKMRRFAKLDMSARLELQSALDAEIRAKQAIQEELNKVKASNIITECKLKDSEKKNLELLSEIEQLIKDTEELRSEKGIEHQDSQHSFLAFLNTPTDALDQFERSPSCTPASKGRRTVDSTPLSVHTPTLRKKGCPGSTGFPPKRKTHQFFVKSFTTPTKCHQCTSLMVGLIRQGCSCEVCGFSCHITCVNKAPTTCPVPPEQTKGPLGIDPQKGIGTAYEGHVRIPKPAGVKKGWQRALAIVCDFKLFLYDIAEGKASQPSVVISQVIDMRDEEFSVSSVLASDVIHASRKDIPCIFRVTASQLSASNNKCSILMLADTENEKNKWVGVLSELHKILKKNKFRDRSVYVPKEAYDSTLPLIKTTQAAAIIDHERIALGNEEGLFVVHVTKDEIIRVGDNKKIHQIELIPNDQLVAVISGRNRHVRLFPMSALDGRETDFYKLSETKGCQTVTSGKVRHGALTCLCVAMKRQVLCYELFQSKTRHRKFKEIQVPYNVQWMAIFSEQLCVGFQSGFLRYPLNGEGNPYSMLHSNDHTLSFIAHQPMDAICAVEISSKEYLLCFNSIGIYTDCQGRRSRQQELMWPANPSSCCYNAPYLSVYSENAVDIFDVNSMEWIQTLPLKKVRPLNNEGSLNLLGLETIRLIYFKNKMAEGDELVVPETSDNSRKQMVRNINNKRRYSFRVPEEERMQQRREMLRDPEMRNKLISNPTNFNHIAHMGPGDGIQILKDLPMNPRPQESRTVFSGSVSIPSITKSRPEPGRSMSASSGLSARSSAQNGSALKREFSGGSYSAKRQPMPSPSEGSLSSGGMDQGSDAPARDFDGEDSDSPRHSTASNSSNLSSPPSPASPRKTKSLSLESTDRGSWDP

Compound	Inhibition at 3 µM (%) (MRCKβ)	Inhibition at 30 µM (%) (MRCKβ)	other results
COC(=O)[C@@]1(O)C[C@H]2O[C@]1(C)n1c3ccccc3c3c4c(c5c6ccccc6n2c5c31)C(=O)NC4 [K-252a, Nocardiopsis sp., K-252a]	87.3	98.4	
CCn1cnc2c(Nc3cccc(Cl)c3)nc(N[C@H]3CCCC[C@H]3N)nc21 [Cdk1 Inhibitor, CGP74514A]	87.2	100	
C[C@@H](N)[C@H]1CC[C@H](C(=O)Nc2ccncc2)CC1 [Y-27632]	83.5	96.6	Invasion 40 µm above the transwell filter surface, combination with MRCKα/β knockdown ([1]; MDA MB 231 cells with MRCKα/β siRNA knockdown plus Y-27632 treatment): significantly more effective than either MRCKα/β knockdown or Y-27632 treatment alone; Invasion 40 µm above the transwell filter surface, normalized to NTC siRNA transfected cells ([1]; NTC siRNA transfected MDA MB 231 cells): significantly reduced invasion; IC50 (MRCKβ): 470 ± 30 nM
O=S(=O)(c1cccc2cnccc12)N1CCCNCC1 [Fasudil]			Inhibition of MRCK activity (MRCK): did not effectively inhibit MRCK activity
COc1ccc2c(c1)c(C1=C(c3c[nH]c4ccccc34)C(=O)NC1=O)cn2CCCN(C)C [Gö 6983]	88.6	65.1	
CN(C)C[C@H]1CCn2c(c(C3=C(c4cn(C)c5ccccc45)C(=O)NC3=O)c3ccccc32)C1 [Ro-32-0432]	85.2	68.2	
NC(=O)Nc1sc(-c2ccc(F)cc2)cc1C(N)=O [TPCA-1, 2-[(aminocarbonyl)amino]-5-(4-fluorophenyl)-3-thiophenecarboxamide]			IC50 (MRCKα): 1040 ± 60 nM; IC50 (MRCKβ): 1690 ± 130 nM; inhibition at 3 µM (MRCKβ): 50.1%; inhibition at 30 µM (MRCKβ): 88.9%
CN[C@@H]1C[C@H]2O[C@@](C)([C@@H]1OC)n1c3ccccc3c3c4c(c5c6ccccc6n2c5c31)C(=O)NC4 [Staurosporine]			inhibition at 3 µM (MRCKβ): 98.6%; inhibition at 30 µM (MRCKβ): 100%
O=S(=O)(NCCNC/C=C/c1ccc(Br)cc1)c1cccc2cnccc12 [H-89]	79.3	99.1	
O=C1Nc2ccc3ncsc3c2/C1=C/c1cnc[nH]1 [PKR Inhibitor]	80.1	100.5	
O=C1Cc2c([nH]c3ccc([N+](=O)[O-])cc23)-c2ccccc2N1 [Alsterpaullone]			inhibition at 3 µM (MRCKβ): 90.7%; inhibition at 30 µM (MRCKβ): 78.4%
N#CCCc1ccc2c(c1)-c1[nH]c3ccc([N+](=O)[O-])cc3c1CC(=O)N2 [Alsterpaullone, 2-Cyanoethyl]	98.4	94.8	
Cdk1/2 Inhibitor III	100	100	
CN(C)CCCn1cc(C2=C(c3c[nH]c4ccccc34)C(=O)NC2=O)c2ccccc21 [Bisindolylmaleimide I]	87.9		
